Experimental data: patent publication US20220289728A1, “MODULATORS OF TREX1” (Constellation Pharmaceuticals, Inc., priority 2019, published 2022)

How the values were obtained:
HCT116 dual cells = assay: HCT116 Cell Assay (Lucia luciferase reporter of Type I interferon induction); format: cell-based, human; details: pBR322/BstNI DNA transfection, Lucia luciferase at 48 h, relative to 10 uM compound 39
Text: HCT116 dual cells (Invivogen, San Diego, Calif., USA) are derived from the human HCT116 colorectal carcinoma cell line. Cells have been selected for the stable integration of SEAP and Luciferase reporter genes, which expression is under the control of 5 tandem response elements for NF-KB/AP1 and STAT1/STAT2, respectively. The cell line was used to monitor Type I interferon induction and subsequent signaling by measuring the activity of the Lucia luciferase secreted in the culture medium.
HCT116 cells were plated in 96-well plate(s) at 40,000 cells/well in 100 uL DMEM supplemented with 10% FBS and 25 mM Hepes (pH 7.2-7.5). After overnight settling, cells were treated with TREX1i for 4 h (maximum DMSO fraction was 0.1%) before 1.25 ug/mL pBR322/BstNI restriction digest (New England Biolabs, Ipswich, Mass., USA) was transfected with Lipofectamine LTX (ThermoFisher, Grand Island, N.Y., USA), according to product manual recommendations. Briefly, Lipofectamine LTX (0.4 uL/well) was diluted in OptiMEM (5 uL/well). pBR322/BstNI (100 ng/well) was diluted in OptiMEM (5 uL/well) before Plus reagent (0.1 uL/100 ng DNA) was added. After 5 min incubation at room temperature, the DNA mixture was mixed dropwise with the diluted Lipofectamine LTX. After an additional 10 min incubation, the transfection mix (10 uL/well) was added to the cells. Cells were maintained at 37° C. for 48 h before monitoring the Lucia Luciferase activity from the cell culture medium. EC50 values were calculated by comparing the measured luminescence relative to 10 uM compound 39 (100% inhibition) and no inhibitor (0% inhibition) controls using non-linear least-squares four parameter fits in either Genedata Screener or GraphPad Prism (GraphPad Software, Inc.).

[1] = target: T1, human TREX2 (residues M44-A279) (Homo sapiens, UniProt Q9BQ50); assay: TREX2 Biochemical Assay (fluorescence, dsDNA substrate degradation); details: 2.5 nM TREX2, 60 nM dsDNA substrate, 25 minutes at room temperature
T1 construct: human TREX2 (residues M44-A279, expressed in E. coli); His-TEV (His tag with TEV site) (N); made in house; host or cells: E. coli
T1 sequence (Q9BQ50 44-279 isoform Q9BQ50-1): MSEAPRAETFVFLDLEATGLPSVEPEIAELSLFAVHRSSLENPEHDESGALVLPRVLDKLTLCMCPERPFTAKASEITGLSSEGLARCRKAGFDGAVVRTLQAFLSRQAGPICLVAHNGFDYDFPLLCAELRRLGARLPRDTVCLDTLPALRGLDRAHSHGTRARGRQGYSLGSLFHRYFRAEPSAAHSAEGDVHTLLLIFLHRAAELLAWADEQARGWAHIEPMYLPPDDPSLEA
Method: Degradation of the dsDNA liberates free fluorophore to produce a fluorescent signal. Specifically, 7.5 μL of N-terminally His-Tev tagged human TREX2 (residues M44-A279, expressed in E. coli and purified in house) in reaction buffer (50 mM Tris (pH 7.4), 150 mM NaCl, 2 mM DTT, 0.1 mg/mL BSA, 0.01% (v/v) Tween-20 and 100 mM MgCl2) was added to a 384-well Black ProxiPlate Plus (Perkin Elmer) which already contained compound (150 nL) at varying concentrations as a 10 point dose-response in DMSO. To this was added 7.5 μL of dsDNA substrate (Strand A: 5′ TEX615/GCT AGG CAG 3′; Strand B: 5′ CTG CCT AGC/IAbRQSp (IDT)) in reaction buffer. Final concentrations were 2.5 nM TREX2, 60 nM dsDNA substrate in reaction buffer with 1.0% DMSO (v/v). After 25 minutes at room temperature, reactions were quenched by the addition of 5 μL of stop buffer (same as reaction buffer plus 200 mM EDTA). Final concentrations in the quenched reaction mixture were […] TREX2, 45 nM DNA and 50 mM EDTA in a volume of 20 μL. After a 5-minute incubation at room temperature, plates were read in a laser sourced Envision (Perkin-Elmer), measuring fluorescence at 615 nm following excitation w/570 nm light. IC50 values were calculated by comparing the measured fluorescence at 615 nm ratio relative to control wells pre-quenched w/stop buffer (100% inhibition) and no inhibitor (0% inhibition) controls as using non-linear least square four parameter fits and either Genedata or GraphPad Prism (GraphPad Software, Inc.).

full length human TREX1 = target: T2, full length human TREX1 (Homo sapiens, UniProt Q9NSU2); assay: TREX1 Biochemical Assay (fluorescence, dsDNA substrate degradation); details: 150 pM TREX1, 60 nM dsDNA substrate, 25 minutes at room temperature
T2 construct: N-terminally His-Tev tagged full length human TREX1; His-TEV (His tag with TEV site) (N); made in house; host or cells: E. coli
T2 sequence (Q9NSU2 1-314): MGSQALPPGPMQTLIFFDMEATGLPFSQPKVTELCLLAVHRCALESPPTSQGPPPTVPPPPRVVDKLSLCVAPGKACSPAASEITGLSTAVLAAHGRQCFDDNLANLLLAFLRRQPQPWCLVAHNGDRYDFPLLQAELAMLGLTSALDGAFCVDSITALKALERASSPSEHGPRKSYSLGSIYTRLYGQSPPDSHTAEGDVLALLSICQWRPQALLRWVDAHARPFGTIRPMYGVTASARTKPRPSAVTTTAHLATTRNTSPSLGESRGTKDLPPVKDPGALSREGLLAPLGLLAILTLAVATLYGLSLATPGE
Method: Degradation of the dsDNA liberates free fluorophore to produce a fluorescent signal. Specifically, 7.5 μL of N-terminally His-Tev tagged full length human TREX1 (expressed in E. coli and purified in house) in reaction buffer (50 mM Tris (pH 7.4), 150 mM NaCl, 2 mM DTT, 0.1 mg/mL BSA, 0.01% (v/v) Tween-20 and 100 mM MgCl2) was added to a 384-well Black ProxiPlate Plus (Perkin Elmer) which already contained compound (150 nL) at varying concentrations as a 10 point dose-response in DMSO. To this was added 7.5 μL of dsDNA substrate (Strand A: 5′ TEX615/GCT AGG CAG 3′; Strand B: 5′ CTG CCT AGC/IAbRQSp (Integrated DNA Technologies)) in reaction buffer. Final concentrations were 150 pM TREX1, 60 nM dsDNA substrate in reaction buffer with 1.0% DMSO (v/v). After 25 minutes at room temperature, reactions were quenched by the addition of 5 μL of stop buffer (same as reaction buffer plus 200 mM EDTA). Final concentrations in the quenched reaction were 112.5 pM TREX1, 45 nM DNA and 50 mM EDTA in a volume of 20 μL. After a 5-minute incubation at room temperature, plates were read in a laser sourced Envision (Perkin-Elmer), measuring fluorescence at 615 nm following excitation w/570 nm light. IC50 values were calculated by comparing the measured fluorescence at 615 nm ratio relative to control wells pre-quenched w/stop buffer (100% inhibition) and no inhibitor (0% inhibition) controls as using non-linear least square four parameter fits and either Genedata or GraphPad Prism (GraphPad Software, Inc.).

[2] = Homo sapiens, HCT-116, 4 h pre-treatment

| EC50 (HCT116 dual cells; [2]) | IC50 [1] | IC50 (full length human TREX1) | EC50 (HCT116 dual cells; 4 h pre-treatment) | SMILES |
| --- | --- | --- | --- | --- |
| 10 to 100 µM | 1 to 10 µM | < 100 nM |  | CN(Cc1cccc(-c2cnn(C)c2)c1)c1nc(C(=O)Nc2cnoc2)c(O)c(=O)n1C [Example 19] |
|  | < 1 µM | < 100 nM | 1 to 10 µM | Cc1cc(C(c2ccccc2Cl)N(C)c2nc(C(=O)Nc3cnoc3)c(O)c(=O)n2C)ccn1 (single isomer, unassigned) [Example 90] |
|  | 10 to 100 µM | 100 to 1000 nM |  | CN(C)C(=O)c1ccccc1CN(C)c1nc(C(=O)Nc2cnoc2)c(O)c(=O)n1C [Example 75] |
| < 1 µM | < 1 µM | < 100 nM |  | Cc1cc(C(c2ccccc2Cl)N(C)c2nc(C(=O)Nc3cnoc3)c(O)c(=O)n2C)ccn1 (single isomer, unassigned) [Example 89] |
|  | 1 to 10 µM | 100 to 1000 nM |  | Cc1csc(CN(C)c2nc(C(=O)Nc3cnoc3)c(O)c(=O)n2C)n1 [Example 38] |
| < 1 µM | < 1 µM | < 100 nM |  | CN(c1nc(C(=O)Nc2cnoc2)c(O)c(=O)n1C)C(c1ccccc1)c1ccccc1 [Example 30] |
| 1 to 10 µM | 1 to 10 µM | < 100 nM |  | CN(Cc1ccccc1)c1nc(C(=O)Nc2cnoc2)c(O)c(=O)n1C [Example 2] |
|  | 10 to 100 µM | 100 to 1000 nM |  | CN(Cc1ccc(C(F)(F)F)cc1)c1nc(C(=O)Nc2cnoc2)c(O)c(=O)n1C [Example 12] |
| 10 to 100 µM | 1 to 10 µM | < 100 nM |  | CN(Cc1ccc(-c2cnn(C)c2)cc1)c1nc(C(=O)Nc2cnoc2)c(O)c(=O)n1C [Example 25] |
| < 1 µM | < 1 µM | < 100 nM |  | Cc1ncc(C(c2ccccc2Cl)N(C)c2nc(C(=O)Nc3cnoc3)c(O)c(=O)n2C)cn1 (single isomer, unassigned) [Example 81] |
| < 1 µM | < 1 µM | < 100 nM |  | CN(c1nc(C(=O)Nc2cnoc2)c(O)c(=O)n1C)C(c1ccccc1)c1cc(F)ccc1Cl (single isomer, unassigned) [Example 87] |
|  | 10 to 100 µM | 100 to 1000 nM |  | CN(Cc1cncnc1)c1nc(C(=O)Nc2cnoc2)c(O)c(=O)n1C [Example 34] |
| 10 to 100 µM | 1 to 10 µM | < 100 nM |  | CN(Cc1ccc2ccccc2c1)c1nc(C(=O)Nc2cnoc2)c(O)c(=O)n1C [Example 14] |
| 1 to 10 µM | 1 to 10 µM | < 100 nM |  | CN(Cc1ccc(Cl)cc1Cl)c1nc(C(=O)Nc2cnoc2)c(O)c(=O)n1C [Example 6] |
|  | < 1 µM | < 100 nM | < 1 µM | CN(c1nc(C(=O)Nc2cnoc2)c(O)c(=O)n1C)C(c1ccccc1)c1cc(F)ccc1Cl (single isomer, unassigned) [Example 88] |
| 1 to 10 µM | 1 to 10 µM | < 100 nM |  | CN(c1nc(C(=O)Nc2cnoc2)c(O)c(=O)n1C)C(c1ccccc1)C1CCOCC1 (single isomer, unassigned) [Example 45] |
|  | 10 to 100 µM | 100 to 1000 nM |  | CN(C)C(=O)c1ccc(CN(C)c2nc(C(=O)Nc3cnoc3)c(O)c(=O)n2C)cc1 [Example 76] |
| 1 to 10 µM | 1 to 10 µM | < 100 nM |  | CN(c1nc(C(=O)Nc2cnoc2)c(O)c(=O)n1C)C(c1ccccn1)c1c(Cl)cccc1Cl (single isomer, unassigned) [Example 60] |
|  | 1 to 10 µM | < 100 nM | 1 to 10 µM | CN(c1nc(C(=O)Nc2cnoc2)c(O)c(=O)n1C)C(c1ccccc1)c1ccccn1 (single isomer, unassigned) [Example 42] |
|  | 10 to 100 µM | 100 to 1000 nM |  | CN(Cc1ccncc1)c1nc(C(=O)Nc2cnoc2)c(O)c(=O)n1C [Example 37] |
|  | 1 to 10 µM | 100 to 1000 nM |  | CN(Cc1cccnc1-c1cccc(Cl)c1)c1nc(C(=O)Nc2cnoc2)c(O)c(=O)n1C [Example 20] |
|  | 10 to 100 µM | 100 to 1000 nM |  | CN(C)C(=O)c1cccc(CN(C)c2nc(C(=O)Nc3cnoc3)c(O)c(=O)n2C)c1 [Example 77] |
|  | 1 to 10 µM | 100 to 1000 nM |  | CN(c1nc(C(=O)Nc2cnoc2)c(O)c(=O)n1C)C1CCCCC1 [Example 72] |
|  | > 100 µM | > 10000 nM |  | Cc1ncc(C(c2ccccc2Cl)N(C)c2nc(C(=O)Nc3cnoc3)c(O)c(=O)n2C)cn1 (single isomer, unassigned) [Example 82] |
|  | 10 to 100 µM | 100 to 1000 nM |  | CN(Cc1cnn(C)c1)c1nc(C(=O)Nc2cnoc2)c(O)c(=O)n1C [Example 33] |
|  | 10 to 100 µM | 100 to 1000 nM |  | CN1CCC(C(c2ccccc2)N(C)c2nc(C(=O)Nc3cnoc3)c(O)c(=O)n2C)CC1 (stereo not drawn) [Example 49] |
|  | 10 to 100 µM | 100 to 1000 nM |  | CN(CCc1ccccc1)c1nc(C(=O)Nc2cnoc2)c(O)c(=O)n1C [Example 3] |
|  | 10 to 100 µM | 100 to 1000 nM |  | CC(=O)N1CCC(N(C)c2nc(C(=O)Nc3cnoc3)c(O)c(=O)n2C)CC1 [Example 73] |
|  | 1 to 10 µM | < 100 nM |  | CN(Cc1ccccc1-c1cccc(Cl)c1)c1nc(C(=O)Nc2cnoc2)c(O)c(=O)n1C [Example 17] |
